Experiment [1] addresses T1, delF508-CFTR (Homo sapiens, UniProt P13569, DEL508-508).
T1 construct: expressed in transfected cells
In words: Measurement of delF508-CFTR-HRP surface expression in CFBE41o- cells. The conditions noted are these: for EC50: HRP-tagged delF508-CFTR in CFBE41o- cells, 24 h with compound, luminescence, 10-point curve, top 10 μM; for Emax: efficacy relative to reference compound 3-(6-(1-(2,2-difluorobenzo[d][1,3]dioxol-5-yl)cyclopropane-1-carboxamido)-3-methylpyridin-2-yl)benzoic acid, CFBE41o- cells, 24 h, read-out: DelF508-CFTR-HRP Amax %. Type of experiment: cell-based. Put shortly:
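CFBE41o- cells stably expressing delF508-CFTR with HRP in the fourth extracellular loop, induced with 500 ng/mL doxycycline for 48 h, then treated with compound (top 10 μM, 10-point 3-fold) for 24 h at 37° C. Surface HRP detected by luminescence with cell-impermeant substrate; EC50 from logistic fit of triplicates, normalized to lowest concentration.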

For experiment [2], the target named is T1, delF508-CFTR. In words: delF508-CFTR functional activity in primary human bronchial epithelial cells (HBECs), Multi-Transepithelial Clamp Circuit (MTECC-24) assay. Type of experiment: cell-based. The conditions noted are these: for EC50: primary human delF508-CFTR bronchial epithelial cells, 24 h with compound, equivalent short circuit current (Ieq), forskolin plus potentiator, mean of at least two replicates, read-out: MTECC24-CFHBEC EC50; for MTECC24-CFHBEC Amax %: test compound added 24 h before assay, with potentiator (S)-3-amino-6-methoxy-N-(3,3,3-trifluoro-2-hydroxy-2-methylpropyl)-5-(trifluoromethyl)picolinamide, relative to 2 μM 3-(6-(1-(2,2-difluorobenzo[d][1,3]dioxol-5-yl)cyclopropane-1-carboxamido)-3-methylpyridin-2-yl)benzoic acid + 0.5 μM N-(2,4-di-tert-butyl-5-hydroxyphenyl)-4-oxo-1,4-dihydroquinoline-3-carboxamide. Summed up:
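Patient-derived delF508 HBECs, air/liquid-interface differentiated ~4 weeks, were compound-treated 24 hrs, then short-circuit current (Ieq) recorded at ~36.5° C in HEPES pH7.4 medium with sequential benzamil, forskolin, potentiator and bumetanide. Normalized to 0.1% DMSO; EC50, fold change and % Amax from curve fits.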

T1 sequence (P13569 with tags, fused parts or gaps DEL508-508): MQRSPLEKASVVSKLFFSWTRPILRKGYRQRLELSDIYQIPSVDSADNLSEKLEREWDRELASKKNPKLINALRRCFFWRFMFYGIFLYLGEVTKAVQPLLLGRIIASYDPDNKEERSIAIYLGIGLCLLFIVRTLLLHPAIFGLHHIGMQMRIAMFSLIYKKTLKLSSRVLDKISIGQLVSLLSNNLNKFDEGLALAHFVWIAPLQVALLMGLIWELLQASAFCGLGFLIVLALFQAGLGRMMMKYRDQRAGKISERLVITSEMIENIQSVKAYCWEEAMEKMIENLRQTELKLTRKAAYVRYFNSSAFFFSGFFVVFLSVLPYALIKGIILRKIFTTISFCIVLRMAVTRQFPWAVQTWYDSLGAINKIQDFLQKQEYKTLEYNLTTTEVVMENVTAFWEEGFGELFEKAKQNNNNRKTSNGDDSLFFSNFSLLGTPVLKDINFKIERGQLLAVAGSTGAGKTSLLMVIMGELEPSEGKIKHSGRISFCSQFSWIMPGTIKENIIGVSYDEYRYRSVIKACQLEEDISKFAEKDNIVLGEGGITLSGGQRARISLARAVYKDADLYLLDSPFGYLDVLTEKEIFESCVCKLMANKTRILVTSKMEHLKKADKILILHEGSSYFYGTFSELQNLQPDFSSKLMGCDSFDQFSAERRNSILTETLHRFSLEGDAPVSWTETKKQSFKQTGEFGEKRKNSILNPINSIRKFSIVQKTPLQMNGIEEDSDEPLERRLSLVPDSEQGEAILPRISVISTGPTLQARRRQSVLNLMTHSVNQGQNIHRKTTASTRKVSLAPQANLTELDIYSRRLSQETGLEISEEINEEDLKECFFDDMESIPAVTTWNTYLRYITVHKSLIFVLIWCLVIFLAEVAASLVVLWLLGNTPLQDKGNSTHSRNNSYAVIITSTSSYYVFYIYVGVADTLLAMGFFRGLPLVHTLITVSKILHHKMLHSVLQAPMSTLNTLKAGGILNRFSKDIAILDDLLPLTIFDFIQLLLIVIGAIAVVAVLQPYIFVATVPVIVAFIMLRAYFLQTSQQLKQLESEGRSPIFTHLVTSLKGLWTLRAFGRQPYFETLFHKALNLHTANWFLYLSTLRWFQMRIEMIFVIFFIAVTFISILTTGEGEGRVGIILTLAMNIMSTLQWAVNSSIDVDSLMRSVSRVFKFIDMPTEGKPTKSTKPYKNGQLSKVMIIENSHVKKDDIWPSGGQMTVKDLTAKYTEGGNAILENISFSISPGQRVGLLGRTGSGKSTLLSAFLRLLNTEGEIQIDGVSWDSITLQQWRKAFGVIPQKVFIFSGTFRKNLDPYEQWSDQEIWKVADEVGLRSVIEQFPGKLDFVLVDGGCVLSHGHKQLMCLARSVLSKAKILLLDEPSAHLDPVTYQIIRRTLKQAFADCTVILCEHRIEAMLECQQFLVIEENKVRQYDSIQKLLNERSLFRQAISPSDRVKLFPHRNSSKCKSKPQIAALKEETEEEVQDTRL

By EC50 is commonly meant the concentration at which the effect is half-maximal. As to `Cc1ccc(F)cc1-c1nc(NS(=O)(=O)c2cccc(N(CCC(=O)O)C(C)C)n2)ccc1C(F)(F)F` [Compound 135, 3-((6-(N-(6-(5-fluoro-2-methylphenyl)-5-(trifluoromethyl)pyridin-2-yl)sulfamoyl)pyridin-2-yl)(isopropyl)amino)propanoic Acid], the EC50 turned out to be 1570 nM in experiment [1] and 65 nM in experiment [2]. Moreover, the “MTECC24-CFHBEC Amax %” value in experiment [2] was determined as 292%.
On the same counts, the results for `CCCN(CCC(=O)O)c1cccc(S(=O)(=O)Nc2ccc(C(F)(F)F)c(-c3ccccc3C)n2)n1` [Compound 148, 3-(propyl(6-(N-(6-(o-tolyl)-5-(trifluoromethyl)pyridin-2-yl)sulfamoyl)pyridin-2-yl)amino)propanoic Acid] are 1450 nM, 179 nM and 247%.
For `CCCN(CCC(=O)O)c1cccc(S(=O)(=O)Nc2ccc(C(F)(F)F)c(-c3cc(F)ccc3C)n2)n1` [Compound 149, 3-((6-(N-(6-(5-fluoro-2-methylphenyl)-5-(trifluoromethyl)pyridin-2-yl)sulfamoyl)pyridin-2-yl)(propyl)amino)propanoic Acid], the EC50 in experiment [1] is 1490 nM. Moreover, in experiment [2], the EC50 is 88 nM and the “MTECC24-CFHBEC Amax %” value was 133%.
Turning to `CCCN(CCCC(=O)O)c1cccc(S(=O)(=O)Nc2ccc(Cl)c(-c3ccccc3C)n2)n1` [Compound 156, 4-((6-(N-(5-chloro-6-(o-tolyl)pyridin-2-yl)sulfamoyl)pyridin-2-yl)(propyl)amino)butanoic Acid], in experiment [1], the concentration giving a half-maximal response (EC50) was 920 nM and the Emax came to 549%. In addition, in experiment [2], the EC50 was found to be 230 nM and the “MTECC24-CFHBEC Amax %” value was determined as 158%.
`CCCN(CCCC(=O)O)c1cccc(S(=O)(=O)Nc2ccc(Cl)c(-c3c(C)cccc3C)n2)n1` [Compound 157, 4-((6-(N-(5-chloro-6-(2,6-dimethylphenyl)pyridin-2-yl)sulfamoyl)pyridin-2-yl)(propyl)amino)butanoic Acid]: in experiment [1], the EC50 is 770 nM and the Emax was 589%. Moreover, in experiment [2], the EC50 is 586 nM and the “MTECC24-CFHBEC Amax %” value is reported as 59%.

For the origin of these results see patent publication US20220127247A1, “N-(PYRIDIN-2-YL)PYRIDINE-SULFONAMIDE DERIVATIVES AND THEIR USE IN THE TREATMENT OF DISEASE” (NOVARTIS AG, priority 2019, published 2022).
